# Reference: PubChem BioAssay AID256 (DTP/NCI, 2004)
# Several values for one entry are separate records, joined by “and”; a condition that tells them apart may be missing. Identical values can stand only once. Toxic doses and inconclusive results are not listed.
# Tested on: CD2F1 mice, L1210 leukemia ip, survival T/C
# Assay: NCI In Vivo Anticancer Drug Screen. Data for tumor model L1210 Leukemia (intraperitoneal) in CD2F1 (CDF1) mice
# Conditions: higher = longer survival
# How it was run: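 Implant tumor; dose compound or vehicle; measure endpoint in both groups; report treated divided by control.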
# [1] = endpoint: mean survival time, dose: 75.0 mg/kg/injection, schedule: Q01DX001 (ip), vehicle: saline
# [2] = endpoint: mean survival time, dose: 150.0 mg/kg/injection, schedule: Q01DX001 (ip), vehicle: saline
# [3] = endpoint: mean survival time, dose: 50.0 mg/kg/injection, schedule: Q01DX009 (ip), vehicle: saline
# [4] = endpoint: mean survival time, dose: 100.0 mg/kg/injection, schedule: Q01DX009 (ip), vehicle: saline
# [5] = endpoint: mean survival time, dose: 200.0 mg/kg/injection, schedule: Q01DX009 (ip), vehicle: saline
# [6] = endpoint: mean survival time, dose: 100.0 mg/kg/injection, schedule: Q04DX003 (ip), vehicle: saline with Tween-80
# [7] = endpoint: mean survival time, dose: 200.0 mg/kg/injection, schedule: Q04DX003 (ip), vehicle: saline with Tween-80
# [8] = endpoint: mean survival time, dose: 400.0 mg/kg/injection, schedule: Q04DX003 (ip), vehicle: saline with Tween-80
# [9] = endpoint: mean survival time, dose: 100.0 mg/kg/injection, schedule: Q01DX009 (ip), vehicle: saline with Tween-80
# [10] = endpoint: mean survival time, dose: 200.0 mg/kg/injection, schedule: Q01DX009 (ip), vehicle: saline with Tween-80
# [11] = endpoint: mean survival time, dose: 400.0 mg/kg/injection, schedule: Q01DX009 (ip), vehicle: saline with Tween-80
smiles,measurement,setting,value
CC(N)c1ccccc1 (centres undefined),T/C,"endpoint: mean survival time, dose: 37.5 mg/kg/injection, schedule: Q04DX003 (ip), vehicle: saline",98 % of control
same,T/C,[1],96 % of control
same,T/C,"endpoint: mean survival time, dose: 75.0 mg/kg/injection, schedule: Q04DX003 (ip), vehicle: saline",100 % of control
same,T/C,[2],100 % of control
same,T/C,"endpoint: mean survival time, dose: 150.0 mg/kg/injection, schedule: Q04DX003 (ip), vehicle: saline",100 % of control
same,T/C,"endpoint: mean survival time, dose: 300.0 mg/kg/injection, schedule: Q01DX001 (ip), vehicle: saline",106 % of control
O=C(O)C(=O)c1ccccc1,T/C,[3],98 % of control
same,T/C,[4],104 % of control
same,T/C,[5],107 % of control
O=C(O)C(O)C(=O)O.[NH-]C1CCCCC1[NH-].[Pt+2],T/C,"endpoint: mean survival time, dose: 1.18 mg/kg/injection, schedule: Q04DX003 (ip), vehicle: saline with Tween-80",109 % of control
same,T/C,"endpoint: mean survival time, dose: 2.35 mg/kg/injection, schedule: Q04DX003 (ip), vehicle: saline with Tween-80",120 % of control
same,T/C,"endpoint: mean survival time, dose: 4.7 mg/kg/injection, schedule: Q04DX003 (ip), vehicle: saline with Tween-80",124 % of control
COC(=O)c1nc2ccccc2cc1C#N,T/C,"endpoint: mean survival time, dose: 100.0 mg/kg/injection, schedule: Q01DX001 (ip), vehicle: saline",97 % of control
same,T/C,"endpoint: mean survival time, dose: 200.0 mg/kg/injection, schedule: Q01DX001 (ip), vehicle: saline",96 % of control
O=C(Cc1ccccc1)c1ccc(O)cc1,T/C,[6],100 % of control
same,T/C,[7],103 % of control
same,T/C,[8],111 % of control
Cc1ncc(CO)c(C2NOCc3ccc(Cl)cc32)c1O (centres undefined),T/C,"endpoint: mean survival time, dose: 25.0 mg/kg/injection, schedule: Q01DX009 (ip), vehicle: Klucel (hydroxypropylcellulose) (HPC)",96 % of control
same,T/C,"endpoint: mean survival time, dose: 50.0 mg/kg/injection, schedule: Q01DX009 (ip), vehicle: Klucel (hydroxypropylcellulose) (HPC)",98 % of control
CS(=O)(=O)OCCNC(=O)N(CCCl)N=O,T/C,"endpoint: mean survival time, dose: 0.39 mg/kg/injection, schedule: Q01DX009 (ip), vehicle: water",95 % of control
same,T/C,"endpoint: mean survival time, dose: 0.78 mg/kg/injection, schedule: Q01DX009 (ip), vehicle: water",108 % of control
same,T/C,"endpoint: mean survival time, dose: 3.13 mg/kg/injection, schedule: Q01DX009 (ip), vehicle: water",193 % of control
same,T/C,"endpoint: mean survival time, dose: 5.0 mg/kg/injection, schedule: Q01DX001 (ip), vehicle: distilled water + Tween-80",120 % of control
same,T/C,"endpoint: mean survival time, dose: 6.25 mg/kg/injection, schedule: Q01DX009 (ip), vehicle: water",356 % of control
same,T/C,"endpoint: mean survival time, dose: 20.0 mg/kg/injection, schedule: Q01DX001 (ip), vehicle: distilled water + Tween-80",216 % of control and 342 % of control
same,T/C,"endpoint: mean survival time, dose: 40.0 mg/kg/injection, schedule: Q01DX001 (ip), vehicle: distilled water + Tween-80",311 % of control and 500 % of control
COc1ccc(OC)c(NC(=O)NNC(=O)c2ccc(Cl)cc2)c1,T/C,[9],90 % of control
O=c1[nH]cnc2c1CN(c1ccccc1)C2,T/C,[1],113 % of control
same,T/C,[2],104 % of control
CN(CCC#N)c1ccc(C(=C2C=CC(=Nc3ccccc3)c3ccccc32)c2ccc(N(C)CCC#N)cc2)cc1,T/C,"endpoint: mean survival time, dose: 100.0 mg/kg/injection, schedule: Q04DX002 (ip), vehicle: saline with Tween-80",97 % of control
same,T/C,"endpoint: mean survival time, dose: 200.0 mg/kg/injection, schedule: Q04DX002 (ip), vehicle: saline with Tween-80",101 % of control
COC(=O)C(=[N+]=[N-])C(=O)OC,T/C,[9],93 % of control
same,T/C,[6],101 % of control
same,T/C,[10],93 % of control
same,T/C,[7],101 % of control
same,T/C,[11],91 % of control
same,T/C,[8],98 % of control
CCCS(=O)(=O)CS(=O)(=O)CC,T/C,"endpoint: mean survival time, dose: 75.0 mg/kg/injection, schedule: Q01DX001 (ip), vehicle: saline with Tween-80",100 % of control
same,T/C,"endpoint: mean survival time, dose: 150.0 mg/kg/injection, schedule: Q01DX001 (ip), vehicle: saline with Tween-80",92 % of control
same,T/C,"endpoint: mean survival time, dose: 300.0 mg/kg/injection, schedule: Q01DX001 (ip), vehicle: saline with Tween-80",90 % of control
COc1c(C=O)c2c(c(OC)c1OC)-c1ccc(OC)c(=O)cc1[C@@H](NC(C)=O)CC2,T/C,"endpoint: median survival time, dose: 12.5 mg/kg/injection, schedule: Q01DX009 (ip), vehicle: Klucel (hydroxypropylcellulose) (HPC)",100 % of control
CCCC(=O)O,T/C,"endpoint: mean survival time, dose: 1.25 mg/kg/injection, schedule: Q01DX009 (ip), vehicle: saline",96 % of control
same,T/C,"endpoint: mean survival time, dose: 12.5 mg/kg/injection, schedule: Q01DX009 (ip), vehicle: saline",98 % of control
same,T/C,"endpoint: mean survival time, dose: 25.0 mg/kg/injection, schedule: Q01DX009 (ip), vehicle: saline",96 % of control and 100 % of control
same,T/C,[3],96 % of control and 97 % of control
same,T/C,[4],97 % of control and 100 % of control
same,T/C,"endpoint: mean survival time, dose: 100.0 mg/kg/injection, schedule: Q04DX003 (ip), vehicle: saline",102 % of control
same,T/C,[5],95 % of control and 107 % of control
same,T/C,"endpoint: mean survival time, dose: 200.0 mg/kg/injection, schedule: Q04DX003 (ip), vehicle: saline",102 % of control
same,T/C,"endpoint: mean survival time, dose: 400.0 mg/kg/injection, schedule: Q04DX003 (ip), vehicle: saline",105 % of control
O=[N+]([O-])c1ccc(Nc2ccc(Br)cc2)c([N+](=O)[O-])c1,T/C,[6],95 % of control
same,T/C,[7],93 % of control
COC(=O)C(Cl)c1ccccc1 (centres undefined),T/C,[9],95 % of control
same,T/C,[10],100 % of control
same,T/C,[11],97 % of control
CCOC(=O)Nc1cc2c(c(N)n1)N=C(CN(C)c1ccc(OC)cc1)CN2,T/C,"endpoint: mean survival time, dose: 0.78 mg/kg/injection, schedule: Q01DX009 (ip), vehicle: Klucel (hydroxypropylcellulose) (HPC)",118 % of control
O=NN(CCF)C(=O)NC1CCCCC1,T/C,"endpoint: median survival time, dose: 2.5 mg/kg/injection, schedule: Q01DX001 (ip), vehicle: saline",101 % of control
same,T/C,"endpoint: median survival time, dose: 2.5 mg/kg/injection, schedule: Q04DX002 (ip), vehicle: saline",93 % of control
same,T/C,"endpoint: median survival time, dose: 5.0 mg/kg/injection, schedule: Q01DX001 (ip), vehicle: saline",101 % of control
same,T/C,"endpoint: median survival time, dose: 5.0 mg/kg/injection, schedule: Q04DX002 (ip), vehicle: saline",106 % of control
same,T/C,"endpoint: median survival time, dose: 10.0 mg/kg/injection, schedule: Q01DX001 (ip), vehicle: saline",102 % of control
same,T/C,"endpoint: median survival time, dose: 10.0 mg/kg/injection, schedule: Q04DX002 (ip), vehicle: saline",120 % of control and 223 % of control
same,T/C,"endpoint: median survival time, dose: 20.0 mg/kg/injection, schedule: Q01DX001 (ip), vehicle: saline",103 % of control
same,T/C,"endpoint: median survival time, dose: 20.0 mg/kg/injection, schedule: Q04DX002 (ip), vehicle: saline",365 % of control
same,T/C,"endpoint: median survival time, dose: 40.0 mg/kg/injection, schedule: Q01DX001 (ip), vehicle: saline",120 % of control
same,T/C,"endpoint: median survival time, dose: 40.0 mg/kg/injection, schedule: Q04DX002 (ip), vehicle: saline",216 % of control and 365 % of control
same,T/C,"endpoint: median survival time, dose: 80.0 mg/kg/injection, schedule: Q01DX001 (ip), vehicle: saline",168 % of control
same,T/C,"endpoint: median survival time, dose: 80.0 mg/kg/injection, schedule: Q04DX002 (ip), vehicle: saline",207 % of control and 361 % of control
CN1C(=O)CC(c2ccc(NC(=O)CI)cc2)C1=O (centres undefined),T/C,"endpoint: mean survival time, dose: 6.25 mg/kg/injection, schedule: Q04DX002 (ip), vehicle: saline with Tween-80",92 % of control
same,T/C,"endpoint: mean survival time, dose: 12.5 mg/kg/injection, schedule: Q04DX002 (ip), vehicle: saline with Tween-80",96 % of control
[N-]=[N+]=NC(=O)c1cnc(OCc2ccccc2)nc1N,T/C,"endpoint: mean survival time, dose: 100.0 mg/kg/injection, schedule: Q01DX001 (ip), vehicle: saline with Tween-80",91 % of control
same,T/C,[9],93 % of control
same,T/C,"endpoint: mean survival time, dose: 200.0 mg/kg/injection, schedule: Q01DX001 (ip), vehicle: saline with Tween-80",96 % of control
same,T/C,[10],96 % of control
same,T/C,"endpoint: mean survival time, dose: 400.0 mg/kg/injection, schedule: Q01DX001 (ip), vehicle: saline with Tween-80",94 % of control
same,T/C,[11],93 % of control
COC(=O)CCCc1c[nH]c2ccccc12,T/C,"endpoint: mean survival time, dose: 100.0 mg/kg/injection, schedule: Q04DX003 (ip), vehicle: other",101 % of control
same,T/C,"endpoint: mean survival time, dose: 200.0 mg/kg/injection, schedule: Q04DX003 (ip), vehicle: other",115 % of control
same,T/C,"endpoint: mean survival time, dose: 400.0 mg/kg/injection, schedule: Q04DX003 (ip), vehicle: other",94 % of control
NP(=O)(OCCCOCc1ccccc1)N(CCCl)CCCl (centres undefined),T/C,"endpoint: mean survival time, dose: 12.5 mg/kg/injection, schedule: Q01DX005 (ip), vehicle: water",95 % of control
same,T/C,"endpoint: mean survival time, dose: 25.0 mg/kg/injection, schedule: Q01DX005 (ip), vehicle: water",94 % of control
same,T/C,"endpoint: mean survival time, dose: 50.0 mg/kg/injection, schedule: Q01DX005 (ip), vehicle: water",100 % of control
same,T/C,"endpoint: mean survival time, dose: 100.0 mg/kg/injection, schedule: Q01DX005 (ip), vehicle: water",100 % of control
same,T/C,"endpoint: mean survival time, dose: 200.0 mg/kg/injection, schedule: Q01DX005 (ip), vehicle: water",101 % of control
